15 molecules from patent publication US7855292B2, “Sulfonamide compounds” (Janssen Pharmaceutica NV, priority 2004, dated 2010) can be followed below.

Structures can show the parent of a compound that is named as a salt.

The target of one assay is T1, CCK-1 receptor (Homo sapiens, UniProt P32238).
T1 construct: expressed in transfected cells; host or cells: CHO-K1
T1 sequence (P32238 1-428): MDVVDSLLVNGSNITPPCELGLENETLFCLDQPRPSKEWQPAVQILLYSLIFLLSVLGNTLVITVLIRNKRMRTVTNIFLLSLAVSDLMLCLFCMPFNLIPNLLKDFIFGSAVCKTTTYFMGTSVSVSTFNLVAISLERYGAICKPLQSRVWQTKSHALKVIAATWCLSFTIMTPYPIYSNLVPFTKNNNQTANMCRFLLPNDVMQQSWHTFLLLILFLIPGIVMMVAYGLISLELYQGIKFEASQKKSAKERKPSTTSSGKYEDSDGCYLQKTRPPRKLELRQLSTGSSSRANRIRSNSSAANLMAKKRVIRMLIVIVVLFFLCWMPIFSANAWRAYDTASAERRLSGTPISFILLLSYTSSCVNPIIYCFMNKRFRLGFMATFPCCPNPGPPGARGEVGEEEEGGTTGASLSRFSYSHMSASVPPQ
The experiment in a line: CCK1 binding assay ([125I]-BH-CCK-8S displacement, CHO-K1 membranes). To be noted: membranes of CHO-K1 cells stably transfected with the CCK-1 receptor; 20 pM [125I]-BH-CCK-8S; 0.3 μM PD-134,308 present; 60 min at 21±3° C. On the procedure:
1. CCK1 Assay Development and Data Generation
CHO-K1 cells that had undergone stable transfection with the CCK-1 receptor were grown in DMEM supplemented with L-glutamine (2 mM), penicillin (50 units/mL) and streptomycin (50 μg/mL). Cells were cultured under continuous G418 selection (2 mM) and were harvested using a rubber cell scraper. CHO-K1 cells were sub-cultured a maximum of ten times before being reseeded from the original stocks.
Membranes were prepared from the stably transfected CHO-K1 cells. Frozen cell pellets (−40° C.) were thawed in 14 mL of buffer A (10 mM HEPES, 130 mM NaCl, 4.7 mM KCl, 5 mM MgCl, 1 mM EGTA and 15.4 mg/100 mL bacitracin at pH 7.2), adapted from Harper et al. (Br. J. Pharmacol. 1996, 118:1717-1726). The thawed pellets were homogenized using a Polytron PT-10 (7×1 s). The homogenates were centrifuged for 5 min at 1500 rpm (600×g), and the resulting pellets were discarded. The supernatants were re-centrifuged in order to collect the receptor-membrane pellets (25 min 15,000 rpm; 39,800×g), which were re-suspended in buffer A.
All assays were conducted in 96-well plates (GF/B millipore filter plates) using buffer A, with 0.3 μM PD-134,308, for the dilutions. The CCK-2 receptor ligand was included to eliminate the contribution of this receptor subtype to the binding. For the optimal cell number determination experiments 20 pM [^125I]-BH-CCK-8S (50 μL […] solution) was incubated with a range of cell concentrations ([…] to 12.5×10^5 cells/well) in a total volume of 150 μL. Total binding of [^125I]-BH-CCK-8S was determined in the presence of 15 μL of buffer A. Non-specific binding of [^125I]-BH-CCK-8S was determined in the presence of 15 μL of 100 μM 2-naphthalenesulphonyl L-aspartyl-(2-phenethyl)amide (2-NAP: see R. A. Hull et al. Br. J. Pharmacol. 1993, 108:734-740), a CCK-1 receptor selective antagonist that is structurally unrelated to the radioligand [^125I]-BH-CCK-8S. The assay preparation was incubated for 1 h at 21±3° C., and then the assay was terminated upon rapid filtration of the preparation under reduced pressure. The loaded filters were washed three times using undiluted PBS ([…]), and then the residues were transferred to 5 mL scintillation tubes. Bound radioactivity was determined using a gamma counter (count time=1 min). […] To validate the radioligand concentration and incubation time for the assay, saturation and kinetic binding studies were also conducted (see M. F. Morton, The Pharmacological Characterization of Cholecystokinin Receptors in the Human Gastrointestinal Tract. PhD Thesis, University of London, 2000). […] The assay was then terminated according to the procedure outlined above.
(§1) 3. Data Analysis for CCK1 and CCK2 Binding Assays
The pKi values were determined using the equation of Y.-C. Cheng and W. H. Prusoff (Biochem. Pharmacol., 1973, 22(23):3099-3108):
(§2) [formula] To circumvent problems associated with computer-assisted data analysis of compounds with low affinity, the data obtained in the current study were weighted according to a method described by Morton. In brief, 100% and 0% specific binding were defined independently using total binding and binding obtained in the presence of a high concentration of the reference antagonist, 2-NAP.
On to `O=C(NCC(c1ccc(Cl)cc1)c1ccc(Cl)cc1)c1ccc(Cl)cc1NS(=O)(=O)c1cccc2nsnc12` [Example 6, 2-(Benzo[1,2,5]thiadiazole-4-sulfonylamino)-N-[2,2-bis-(4-chloro-phenyl)-ethyl]-4-chloro-benzamide], for which the “CCK1 pKi” value is 7.5. Regarding `O=C(N[C@@H](Cc1ccc(Cl)c(Cl)c1)C(=O)O)c1ccc(Cl)cc1NS(=O)(=O)c1cccc2nsnc12` [Example 117, (S)-2-[2-(Benzo[1,2,5]thiadiazole-4-sulfonylamino)-4-chloro-benzoylamino]-3-(3,4-dichloro-phenyl)-propionic acid], the “CCK1 pKi” value turned out to be 6.6.

The same assay, now with this note: membranes of CHO-K1 cells stably transfected with the CCK-1 receptor; 20 pM [125I]-BH-CCK-8S; 0.3 μM PD-134,308 present; 60 min at 21±3° C.; read-out: CCK1 pKi (converted).
`C[C@@H](NC(=O)c1ccc(Cl)cc1NS(=O)(=O)c1cccc2nsnc12)C(O)(c1ccccc1)c1ccccc1` [Example 73, (R)-2-(Benzo[1,2,5]thiadiazole-4-sulfonylamino)-4-chloro-N-(2-hydroxy-1-methyl-2,2-diphenyl-ethyl)-benzamide]: the Ki is 158 nM.

Another assay deals with T2, CCK2 receptor (Homo sapiens, UniProt P32239).
T2 construct: analyzed for ZFP expression as well as CCK2R induction upon addition of doxycycline to the culture medium; endogenous in cells
T2 sequence (P32239 1-447): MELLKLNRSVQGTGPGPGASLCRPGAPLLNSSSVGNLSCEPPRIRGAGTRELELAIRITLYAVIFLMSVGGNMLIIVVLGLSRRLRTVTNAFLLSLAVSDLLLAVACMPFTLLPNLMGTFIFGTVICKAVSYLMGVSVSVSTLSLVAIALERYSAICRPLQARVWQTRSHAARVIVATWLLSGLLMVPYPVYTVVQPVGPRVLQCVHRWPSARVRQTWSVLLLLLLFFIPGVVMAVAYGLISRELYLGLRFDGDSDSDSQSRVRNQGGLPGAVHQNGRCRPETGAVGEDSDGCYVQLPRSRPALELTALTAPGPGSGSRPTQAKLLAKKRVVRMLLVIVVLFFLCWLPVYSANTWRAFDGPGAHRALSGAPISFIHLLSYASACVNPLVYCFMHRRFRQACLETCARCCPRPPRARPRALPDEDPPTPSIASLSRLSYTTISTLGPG
Kind of assay: CCK2 binding assay ([125I]-BH-CCK-8S displacement, HEKZFP membranes). To be noted: membranes of doxycycline-induced HEKZFP cells; 20 pM [125I]-BH-CCK-8S; 60 min at 21±3° C. On the procedure:
2. CCK2 Assay Development and Data Generation
Zinc Finger Proteins (ZFP) specific for the CCK2R gene were identified by Sangamo Biosciences. The ZFP domain was fused with the herpes simplex virus VP16 activation domain, and the fusion protein was subsequently cloned into the pcDNA3 mammalian expression vector (Invitrogen, San Diego, Calif.). […] After 2 weeks of selection in culture medium containing […] Zeocin (Invitrogen), sixty drug-resistant stable clones were isolated and analyzed for ZFP expression as well as CCK2R induction upon addition of doxycycline to the culture medium.
HEKZFP cells were grown in DMEM supplemented with L-glutamine (2 mM), penicillin (50 units/mL) and streptomycin (50 μg/mL) and 10% FBS (v/v).
Membranes were prepared from the HEKZFP cells after induction. […] The thawed pellets were homogenized using a Polytron PT-10 (7×1 s). The homogenates were centrifuged for 5 min at 1500 rpm (600×g), and the resulting pellets were discarded. The supernatants were re-centrifuged in order to collect the receptor-membrane pellets (25 min 15,000 rpm; 39,800×g), which were re-suspended in buffer A.
The assay preparation was incubated for 1 h at 21±3° C., and then the assay was terminated by rapid filtration of the preparation under reduced pressure. The loaded filters were washed three times using undiluted PBS (100 μL), and then 100 μL of scintillation fluid was added to the filter plate. Bound radioactivity was determined using a Topcount (Packard BioScience, Meriden, Conn.) with a count time of 1 min. […] To validate the radioligand concentration and incubation time for the assay, saturation and kinetic binding studies were also conducted (see M. F. Morton, The Pharmacological Characterization of Cholecystokinin Receptors in the Human Gastrointestinal Tract. PhD Thesis, University of London, 2000). […] The assay was then terminated according to the procedure outlined above.
as §1
The pKi values were determined using the equation of Y.-C.
as §2
As to `O=C(N[C@H](C(=O)O)C(c1ccc(Cl)cc1)c1ccc(Cl)cc1)c1ccc(Cl)cc1NS(=O)(=O)c1cccc2nsnc12` [Example 106, (S)-2-[2-(Benzo[1,2,5]thiadiazole-4-sulfonylamino)-4-chloro-benzoylamino]-3,3-bis-(4-chloro-phenyl)-propionic acid], the “CCK2 pKi” value was found to be 5.9. Same read-out and setting: as for `O=C(N[C@@H](Cc1ccc(F)c(Br)c1)C(=O)O)c1cc(Cl)c(Cl)cc1NS(=O)(=O)c1cccc2nsnc12` [Example 157, (S)-2-[2-(Benzo[1,2,5]thiadiazole-4-sulfonylamino)-4,5-dichloro-benzoylamino]-3-(3-bromo-4-fluoro-phenyl)-propionic acid], the figure is 8.0.

The same assay, now with this note: membranes of doxycycline-induced HEKZFP cells; 20 pM [125I]-BH-CCK-8S; 60 min at 21±3° C.; read-out: CCK2 pKi (converted).
As to `O=C(N[C@@H](Cc1ccccc1)C(=O)O)c1ccc(Br)cc1NS(=O)(=O)c1cccc2nsnc12` [Example 25, 2-[2-(Benzo[1,2,5]thiadiazole-4-sulfonylamino)-4-bromo-benzoylamino]-3-phenyl-propionic acid], the Ki is 39.8 nM.

For `O=C(N[C@@H](Cc1ccccc1)C(=O)O)c1ccc(I)cc1NS(=O)(=O)c1cccc2nccnc12` [Example 27, 2-[4-Iodo-2-(quinoxaline-5-sulfonylamino)-benzoylamino]-3-phenyl-propionic acid], the Ki was 31.6 nM. For the molecule `O=C(N[C@@H](Cc1ccccc1)C(=O)O)c1ccc(I)cc1NS(=O)(=O)c1cccc2scnc12` [Example 28, 2-[2-(Benzothiazole-4-sulfonylamino)-4-iodo-benzoylamino]-3-phenyl-propionic acid], the Ki was 79.4 nM. `CN(CCc1ccccn1)C(=O)c1ccc(Cl)cc1NS(=O)(=O)c1cccc2nsnc12` [Example 51, 2-(Benzo[1,2,5]thiadiazole-4-sulfonylamino)-4-chloro-N-methyl-N-(2-pyridin-2-yl-ethyl)-benzamide hydrochloride]: the Ki was 794 nM. As for `N#Cc1cccc(C[C@H](NC(=O)c2ccc(Cl)cc2NS(=O)(=O)c2cccc3nccnc23)C(=O)O)c1` [Example 63, (S)-2-[4-Chloro-2-(quinoxaline-5-sulfonylamino)-benzoylamino]-3-(3-cyano-phenyl)-propionic acid], the Ki was 31.6 nM. Same read-out and setting: then `O=C(N[C@@H](Cc1ccsc1)C(=O)O)c1ccc(Cl)cc1NS(=O)(=O)c1cccc2nsnc12` [Example 77, (S)-2-[2-(Benzo[1,2,5]thiadiazole-4-sulfonylamino)-4-chloro-benzoylamino]-3-thiophen-3-yl-propionic acid], with 31.6 nM; and `O=C(N[C@@H](Cc1cccc([N+](=O)[O-])c1)C(=O)O)c1ccc(Cl)cc1NS(=O)(=O)c1cccc2nccnc12` [Example 84, (S)-2-[4-Chloro-2-(quinoxaline-5-sulfonylamino)-benzoylamino]-3-(3-nitro-phenyl)-propionic acid], with 31.6 nM; and `O=C(N[C@@H](Cc1ccc(F)c(F)c1)C(=O)O)c1ccc(Cl)cc1NS(=O)(=O)c1cccc2nccnc12` [Example 85, (S)-2-[4-Chloro-2-(quinoxaline-5-sulfonylamino)-benzoylamino]-3-(3,4-difluoro-phenyl)-propionic acid], with 63.1 nM.

Take `N#Cc1ccc(C[C@H](NC(=O)c2ccc(Cl)cc2NS(=O)(=O)c2cccc3nccnc23)C(=O)O)cc1` [Example 86, (S)-2-[4-Chloro-2-(quinoxaline-5-sulfonylamino)-benzoylamino]-3-(4-cyano-phenyl)-propionic acid]: the Ki is 31.6 nM. On to `O=C(N[C@@H](Cc1ccsc1)C(=O)O)c1ccc(Cl)cc1NS(=O)(=O)c1cccc2nccnc12` [Example 87, (S)-2-[4-Chloro-2-(quinoxaline-5-sulfonylamino)-benzoylamino]-3-thiophen-3-yl-propionic acid], for which the Ki is 158 nM.
